Experiments:
[1] = system: MDM2 alternative splicing in Rh18 cells; assay: In vitro alternative splicing assay (MDM2, RT-PCR); format: cell-based; conditions: Rh18, 8 h, PCR (FIG. 9)
Protocol: Briefly, following an 8 h exposure of exponentially growing cells to drug, total RNA was isolated using TRIzol reagent (Invitrogen, Carlsbad, Calif.). Total RNA (1 μg) was used to convert the mRNA to cDNA by using random primers, Oligo(dT)16 and Omniscript Reverse Transcription Kit (Qiagen, Germantown, Md.). PCR analyses were performed using specific oligonucleotides (see Table I) and standard amplification protocols. PCR products were separated by agarose gel electrophoresis, visualized by ethidium bromide staining on an UV transilluminator, and recorded. PCR band sizes were calculated by comparing them to the standard EZ Load 100-bp PCR Molecular Ruler (BioRad Laboratories, Hercules, Calif.).

cell lines investigated = assay: Drug combination assays, cell line not stated; format: cell-based
Protocol: (§1) Preliminary cytotoxic screenings for each drug used in drug combination assays were performed to determine their cytotoxic dose range. […] Eight concentrations were established by 1:3 serial dilutions of the single drugs and their combinations with the splicing modulators. All drug concentrations were evaluated in triplicate in 96-well cell culture plates. Assays of individual drugs and drug combinations were run on the same tissue culture plate. Cell viability was determined using the CellTiter-Glo reagent.
(§2) Luminescence data obtained from the cell viability determinations were formatted per the requirements of the analytical software (viability data range: >0 and <1). The formatted data were analyzed with the software CalcuSyn 2.1 (Biosoft, Cambridge, UK), which provides quantitative CI values for the drug interaction analyses (see ranges in Supplementary Table S2).

[2] = system: c-kit positive bone marrow cells transduced with GFP, WT-U2AF1 or MUT-U2AF1 (S34F); assay: GFP expression and apoptosis in U2AF1 transduced cells; format: cell-based, C57BL/6 mice
Protocol: Bone marrow was collected from C57BL/6 mice and pooled together in a single solution, and then c-kit positive cells were selected. The c-kit positive cells were cultured with media enriched with stem cell factor (SCF), Flt-3, IL3, and thromboprotein (TPO), and other cytokines. Murine stem cell virus (MSCV) was used to transduce these cells with one of three constructs as indicated in the figure: GFP (control), U2AF1-IRES-GFP (indicated as WT-U2AF1 in the figure), or U2AF1^S34F-IRES-GFP (indicated as MUT-U2AF1 in the figure). The transduced cells carry a construct that expresses GFP and as indicated wild-type or mutant U2AF1. The control cells construct expresses only GFP. […] The assay data are expressed as the percentage of annexin V stained cells among the GFP positive cells. […] These cells show an increased tendency to apoptosis (i.e. increased expression of annexin V) in the GFP positive cells.

[3] = system: AML blast cells with wild-type or mutant S34F U2AF1, CD34+ cells; assay: Replication by 5-ethynyl-2′-deoxyuridine incorporation; format: cell-based; conditions: concentration dependent; mutant vs wild-type U2AF1 AML blasts vs CD34+ cells
Protocol: Replication was determined from incorporation of 5-ethynyl-2′-deoxyuridine using standard assay techniques.

SK-MEL-2 = assay: Drug combination assay, SK-MEL-2; format: cell-based
Protocol: as §1, §2

HeLa = assay: Drug combination assay, HeLa; format: cell-based; conditions: HeLa; inhibitor + compound 19
Protocol: as §1, with “reagent. Drug interactions, in terms of synergism, additive effect, or antagonism, were based on the drugs' Combination Index (CI) (Chou et al., Adv. Enzyme Regul. 1984, 22, 27).” for “reagent.”
as §2, with “S2). […] Therefore, in these two cases the drug interaction was evaluated by comparing the IC50 value of Sudemycin with that of the IC50 values resulting from the serial dilutions of the splicing modulator combined with a constant dose of the non-toxic drug.” for “S2).”

JeKo-1 = assay: Drug combination assay, JeKo-1; format: cell-based; conditions: inhibitor + compound 19
Protocol: as §1, with “reagent. Drug interactions, in terms of synergism, additive effect, or antagonism, were based on the drugs' Combination Index (CI) (Chou et al., Adv. Enzyme Regul. 1984, 22, 27).” for “reagent.”
as §2, with “S2). […] Therefore, in these two cases the drug interaction was evaluated by comparing the IC50 value of Sudemycin with that of the IC50 values resulting from the serial dilutions of the splicing modulator combined with a constant dose of the non-toxic drug.” for “S2).”

PC-3 = assay: Drug combination assay, PC-3; format: cell-based; conditions: inhibitor + compound 19
Protocol: as §1, with “reagent. Drug interactions, in terms of synergism, additive effect, or antagonism, were based on the drugs' Combination Index (CI) (Chou et al., Adv. Enzyme Regul. 1984, 22, 27).” for “reagent.”
as §2, with “S2). […] Therefore, in these two cases the drug interaction was evaluated by comparing the IC50 value of Sudemycin with that of the IC50 values resulting from the serial dilutions of the splicing modulator combined with a constant dose of the non-toxic drug.” for “S2).”

Sk-N-AS = assay: Drug combination assay, Sk-N-AS neuroblastoma; format: cell-based; conditions: Sk-N-AS; inhibitor + compound 19
Protocol: as §1, §2

WiDr = assay: Drug combination assay, WiDr; format: cell-based; conditions: inhibitor + compound 19
Protocol: as §1, with “reagent. Drug interactions, in terms of synergism, additive effect, or antagonism, were based on the drugs' Combination Index (CI) (Chou et al., Adv. Enzyme Regul. 1984, 22, 27).” for “reagent.”
as §2, with “S2). […] Therefore, in these two cases the drug interaction was evaluated by comparing the IC50 value of Sudemycin with that of the IC50 values resulting from the serial dilutions of the splicing modulator combined with a constant dose of the non-toxic drug.” for “S2).”

Structure (SMILES): CC(/C=C/[C@@H]1C[C@]2(CO2)CC(C)(C)O1)=C\C[C@H]1CC[C@@H](NC(=O)/C=C\[C@H](C)OC(=O)N(C)C)CC1 [compound 19, (S,Z)-5-(((1R,4R)-4-((2E,4E)-5-((3R,5S)-7,7-Methyl-1,6-Dioxaspiro[2.5]Octan-5-Yl)-3-Methylpenta-2,4-Dien-1-Yl)Cyclohexyl)Amino)-5-Oxopent-3-En-2-Yl Dimethylcarbamate]
- alternative MDM2 splicing [1]: induction of alternative MDM2 splicing
- synergy with PI3K/mTOR inhibition (cell lines investigated; all cell lines investigated): synergy is also seen
- apoptosis (annexin V stained cells among GFP positive cells) ([2]; 75 or 100 nM): cells expressing mutant U2AF1 the most sensitive
- effect on expression of GFP from the splicing construct ([2]; concentration dependent, GFP vs WT-U2AF1 vs MUT-U2AF1 cells): greater sensitivity realized in the mutant U2AF1 cells
- effect on replication [3]: cells expressing mutant U2AF1 are extremely sensitive

Structure (SMILES): CO[C@H]1C[C@@H]2CC[C@@H](C)[C@@](O)(O2)C(=O)C(=O)N2CCCC[C@H]2C(=O)O[C@H]([C@H](C)C[C@@H]2CC[C@@H](OC(=O)C(C)(CO)CO)[C@H](OC)C2)CC(=O)[C@H](C)/C=C(\C)[C@@H](O)[C@@H](OC)C(=O)[C@H](C)C[C@H](C)/C=C/C=C/C=C/1C [Temsirolimus]
- CI in SK-MEL-2 with compound 19 (SK-MEL-2; Combination Index at ED50, CalcuSyn 2.1, listed drug + compound 19): 0.68
- CI of 19 + inhibitor (SK-MEL-2; SK-MEL-2, inhibitor + compound 19): 0.68
- Interaction Type (SK-MEL-2; listed drug combined with compound 19, Ineffective = drug IC50 much higher than 1 μM): Synergism (0.3-0.7)
- CI of 19 + inhibitor (HeLa): 0.35
- CI of 19 + inhibitor (JeKo-1): 0.37
- CI of 19 + inhibitor (PC-3): 0.57
- CI of 19 + inhibitor (Sk-N-AS): 0.58
- CI of 19 + inhibitor (WiDr): 0.44
- drug interaction with compound 20 (cell lines investigated): demonstrated synergy

From patent publication US9682993B2, “Anticancer compounds” (ST. JUDE CHILDREN'S RESEARCH HOSPITAL, priority 2012, dated 2017)
